For test [1], the target named is T1, Recombinant human PDE7A/HCP1 protein (Homo sapiens, UniProt Q13946).
T1 construct: purchased Abcam ab125786
Put plainly: In vitro enzymatic activity assay (PDE-Glo Phosphodiesterase Assay), PDE7A. The test is classed as biochemical. The protocol:
(§1) Penicillin–Streptomycin solution (10,000 U/mL Penicillin, 10,000 μg/mL Streptomycin; Cat #C100C5) was obtained from NCM Biotech (Suzhou, China). Fetal Bovine Serum (FBS; Cat #BC-SE-FBS01) and phosphate-buffered saline (PBS; Cat #10010001) were obtained from Sbjbio (Nanjing, China). Trypsin-EDTA Solution (Cat #BL512A) was obtained from Biosharp (Hefei, China). DMEM medium (High Glucose; Cat #XB01-01) was obtained from VivaCell (Shanghai, China). Opti-MEM medium (Cat #Lvn1012A) was obtained from Livning (Beijing, China). […] The Lipofectamine™ 2000 Transfection Kit (Cat #11668500) was obtained from Thermo Fisher Scientific (Waltham, MA, USA). The pGloSensor™-22F cAMP Plasmid map (Cat #E2301), pGloSensor™-42F cGMP Plasmid map (Cat #CS177001), and PDE-Glo™ Phosphodiesterase Assay (Cat #V1361) were purchased from Promega (Madison, WI, USA). Recombinant human PDE4B protein (Cat #ab125582) and recombinant human PDE7A/HCP1 protein (Cat #ab125786) were obtained from Abcam (Cambridgeshire, UK). Compounds 1–7 were provided by Guoqiang Li’s research group (School of Medicine and Pharmacy, Ocean University, Qingdao, China).
(§2) The inhibitory activities of the compounds against PDE4B and PDE7A were determined according to the procedures required for the PDE-Glo™ Phosphodiesterase Assay.
(§3) Data analysis was carried out using Microsoft Excel and GraphPad Prism 8 software (version 8.0.2 for Windows, GraphPad Software, San Diego, CA, USA). The data in the luminescence signal from the replica well were averaged to produce a response vs. time curve. The cell screening results of the compounds were expressed as percentages (the difference in luminescence signals between the experimental group and the blank control group/blank control group luminescence signal × 100%). For the measurement of IC50, at least seven concentrations of chemicals were used, and IC50 values were calculated using the nonlinear method.

For the next test, the system named is cAMP-related PDEs. Put plainly: GloSensor live-cell screening model targeting cAMP (pGloSensor-22F cAMP plasmid in HEK293T cells, forskolin-stimulated). Particulars: for Luminescence Signal (%): cAMP cell screening model, (experimental group - blank control)/blank control luminescence x 100%, compound concentration not given; for IC50: Homo sapiens, HEK-293T, HEK293T cells, 5 μM forskolin, n = 3, read-out: IC50 detected using the cell screening model targeting cAMP. The test is classed as cell-based, human. The protocol: The HEK293T human embryonic kidney cell line was purchased from SunnCell (Wuhan, China). After recovery, HEK293T cells were passaged 3–4 times a week and cultured at 37 °C in 5% CO2. The culture medium consisted of DMEM, 10% FBS, and 1% antibiotic solution.
Cells were grown to a density of 70–80% in a 6 cm culture dish, the original culture medium was discarded, and 3 mL Opti-MEM was added. A total of 5 μL lipo2000 transfection reagents and 7 μL plasmids were each diluted to 50 μL with Opti-MEM. The above two solutions were mixed, allowed to stand for 20 min, and then added to the cell culture medium. They were then incubated with 5% CO2 at 37 °C for 5 h. The original culture medium was discarded and replaced with the DMEM culture medium. After overnight cultivation at 37 °C and 5% CO2, the transfected cells were transferred to a 96-well plate and cultured under the same conditions for 9 h.
The original culture medium was replaced with 80 μL/well loaded culture medium (containing 2 mM D-Luciferin protein) and incubated at room temperature (20–23 °C) in the dark for 2 h. A total of 10 μL/well with a concentration of 50 μM forskolin (for cAMP testing) or 250 μM SNAP (for cGMP testing) was added to the sample culture medium to increase the level of background cyclic nucleotides in the cells. According to the detection requirements, a certain concentration of analytes was sequentially added to different wells, and the luminescence signal was measured using the SynergyNeo2 (Agilent, Santa Clara, CA, USA) instrument at time 0. The measurement was conducted every 5 min, and the longest duration was based on the start of the luminescence signal’s decline.
as §3
Considering the detection efficiency, the possible toxicity of the reagent to cells, and the Z-factor, the optimal concentration of the AC agonist forskolin required for the cell screening model targeting cAMP was set at 5 μM.
To determine the shortest detection time for the two cell models, the luminescence signal–time curve was established. Based on the variations in luminescence detection values over time from two sets of data (Figure 2), it was determined that the detection time for cell screening models targeting cAMP should not be less than 35 min, while the detection time for cell screening models targeting cGMP should not be less than 30 min.

Test [2] concerns the target T2, Recombinant human PDE4B protein (Homo sapiens, UniProt Q07343).
T2 construct: purchased Abcam ab125582
Put plainly: In vitro enzymatic activity assay (PDE-Glo Phosphodiesterase Assay), PDE4B. The test is classed as biochemical. As to the method:
as §1, with “UK).” for “UK). Compounds 1–7 were provided by Guoqiang Li’s research group (School of Medicine and Pharmacy, Ocean University, Qingdao, China).”
as §2
Data analysis was carried out using Microsoft Excel and GraphPad Prism 8 software (version 8.0.2 for Windows, GraphPad Software, San Diego, CA, USA). The data in the luminescence signal from the replica well were averaged to produce a response vs. time curve. […] For the measurement of IC50, at least seven concentrations of chemicals were used, and IC50 values were calculated using the nonlinear method.

For another test, the system named is cGMP-related PDEs. Put plainly: GloSensor live-cell screening model targeting cGMP (pGloSensor-42F cGMP plasmid in HEK293T cells, SNAP-stimulated). Type of test: cell-based. The following applies: Homo sapiens, HEK-293T, read-out: IC50 detected using the cell screening model targeting cGMP. The protocol: The HEK293T human embryonic kidney cell line was purchased from SunnCell (Wuhan, China). After recovery, HEK293T cells were passaged 3–4 times a week and cultured at 37 °C in 5% CO2. The culture medium consisted of DMEM, 10% FBS, and 1% antibiotic solution. Cells were grown to a density of 70–80% in a 6 cm culture dish, the original culture medium was discarded, and 3 mL Opti-MEM was added. A total of 5 μL lipo2000 transfection reagents and 7 μL plasmids were each diluted to 50 μL with Opti-MEM. The above two solutions were mixed, allowed to stand for 20 min, and then added to the cell culture medium. They were then incubated with 5% CO2 at 37 °C for 5 h. The original culture medium was discarded and replaced with the DMEM culture medium. After overnight cultivation at 37 °C and 5% CO2, the transfected cells were transferred to a 96-well plate and cultured under the same conditions for 9 h. The original culture medium was replaced with 80 μL/well loaded culture medium (containing 2 mM D-Luciferin protein) and incubated at room temperature (20–23 °C) in the dark for 2 h. A total of 10 μL/well with a concentration of 50 μM forskolin (for cAMP testing) or 250 μM SNAP (for cGMP testing) was added to the sample culture medium to increase the level of background cyclic nucleotides in the cells. According to the detection requirements, a certain concentration of analytes was sequentially added to different wells, and the luminescence signal was measured using the SynergyNeo2 (Agilent, Santa Clara, CA, USA) instrument at time 0. The measurement was conducted every 5 min, and the longest duration was based on the start of the luminescence signal’s decline. Data analysis was carried out using Microsoft Excel and GraphPad Prism 8 software (version 8.0.2 for Windows, GraphPad Software, San Diego, CA, USA). The data in the luminescence signal from the replica well were averaged to produce a response vs. time curve. The cell screening results of the compounds were expressed as percentages (the difference in luminescence signals between the experimental group and the blank control group/blank control group luminescence signal × 100%). For the measurement of IC50, at least seven concentrations of chemicals were used, and IC50 values were calculated using the nonlinear method. […] Similar to the cell screening models targeting cAMP, the cell screening models targeting cGMP could not effectively detect the ability of sildenafil to increase intracellular cGMP levels when the GC agonist SNAP was not present or was at low concentrations. […] To determine the shortest detection time for the two cell models, the luminescence signal–time curve was established.

The subject of a further test is PDE5. Further details: method as in PMID 12646997. Particulars: cited from earlier work.
[3] abbreviates: HEK293T cells, 25 μM SNAP, n = 3.

These results are taken from publication PMC11117652, “The Construction and Application of a New Screening Method for Phosphodiesterase Inhibitors” (Biosensors, 2024).

Several values for one entry are separate records, joined by “and”; a condition that tells them apart may be missing. Equal values may be shown once. Read-outs that look alike come from different tables or passages of the source.

T2 sequence (Q07343 whole entry): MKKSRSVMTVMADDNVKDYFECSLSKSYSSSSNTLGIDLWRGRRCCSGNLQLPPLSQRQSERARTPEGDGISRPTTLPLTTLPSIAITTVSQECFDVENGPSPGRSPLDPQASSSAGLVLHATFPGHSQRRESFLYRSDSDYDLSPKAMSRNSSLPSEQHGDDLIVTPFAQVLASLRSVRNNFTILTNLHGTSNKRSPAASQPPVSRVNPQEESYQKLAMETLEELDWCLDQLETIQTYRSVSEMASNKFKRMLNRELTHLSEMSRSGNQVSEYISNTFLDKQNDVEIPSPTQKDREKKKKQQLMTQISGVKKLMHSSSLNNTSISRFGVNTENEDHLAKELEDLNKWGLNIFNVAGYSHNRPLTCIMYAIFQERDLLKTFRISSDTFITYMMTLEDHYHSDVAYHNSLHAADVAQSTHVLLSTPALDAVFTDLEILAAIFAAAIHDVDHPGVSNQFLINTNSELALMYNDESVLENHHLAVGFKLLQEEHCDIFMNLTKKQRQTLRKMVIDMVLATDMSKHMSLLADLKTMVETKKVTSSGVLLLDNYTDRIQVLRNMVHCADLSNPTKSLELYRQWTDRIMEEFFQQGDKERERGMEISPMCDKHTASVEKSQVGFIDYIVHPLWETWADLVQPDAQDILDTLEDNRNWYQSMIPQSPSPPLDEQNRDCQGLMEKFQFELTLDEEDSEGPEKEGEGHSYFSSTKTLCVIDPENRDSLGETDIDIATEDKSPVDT
T1 sequence (Q13946 whole entry): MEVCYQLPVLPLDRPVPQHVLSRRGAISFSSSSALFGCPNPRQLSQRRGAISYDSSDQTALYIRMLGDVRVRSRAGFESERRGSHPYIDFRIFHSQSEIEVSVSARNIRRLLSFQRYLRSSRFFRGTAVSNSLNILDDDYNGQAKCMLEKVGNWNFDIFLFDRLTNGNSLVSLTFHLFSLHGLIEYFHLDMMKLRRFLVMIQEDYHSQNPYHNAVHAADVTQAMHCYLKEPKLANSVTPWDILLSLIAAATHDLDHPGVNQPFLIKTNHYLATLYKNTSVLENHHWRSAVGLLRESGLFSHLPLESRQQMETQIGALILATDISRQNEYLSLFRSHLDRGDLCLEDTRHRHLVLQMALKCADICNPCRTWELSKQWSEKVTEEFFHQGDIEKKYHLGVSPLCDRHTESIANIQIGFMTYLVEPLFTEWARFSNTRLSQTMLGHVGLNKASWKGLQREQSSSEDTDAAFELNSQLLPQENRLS

Usually IC50 stands for the midpoint of a concentration-inhibition curve. For the compound `Cc1ccc([N+](=O)[O-])cc1S(=O)(=O)N(C)C` [BRL-50481, reference compound], the IC50 in test [1] turned out to be 0.2 µM.

Regarding `Clc1cccc(Cl)c1C=Cc1ccccn1` [Compound 1, 2-[2-(2,6-Dichlorophenyl)-ethenyl] pyridine], in the test on cAMP-related PDEs, the “Luminescence Signal (%)” value stood at 109%. Further, the IC50 amounted to 63.7 µM in test [2] and 28.7 µM in test [1].

On to `COc1cc(C=Cc2ccccn2)cc(OC)c1OC` [Compound 2, 2-[2-(3,4,5-Trimethoxyphenyl)-ethenyl] pyridine], for which, in the test with cAMP-related PDEs, the “Luminescence Signal (%)” value is recorded as 51%. Besides, the IC50 in test [2] was 25.5 µM; in test [1], 47.4 µM.

As for `COc1cc(C=Cc2cccnc2)cc(OC)c1OC` [Compound 3, 3-[2-(3,4,5-Trimethoxyphenyl)-ethenyl] pyridine], the “Luminescence Signal (%)” value in the test with cAMP-related PDEs is listed as 87%. Besides, the half-inhibitory concentration (IC50) was 5.7 µM in test [2] and 4.5 µM in test [1].

For the compound `COc1cc(C=Cc2ccncc2)cc(OC)c1OC` [Compound 4, 4-[2-(3,4,5-Trimethoxyphenyl)-ethenyl] pyridine], the “Luminescence Signal (%)” value in the test with cAMP-related PDEs stood at 77%. Moreover, the half-maximal inhibitory concentration (IC50) turned out to be 12.6 µM in test [2] and 8.6 µM in test [1].

As for `COc1ccccc1C=Cc1ccc(N(C)C)cc1` [Compound 5, 4-[2-(2-Methoxyphenyl)-ethenyl]-N,N-dimethylbenzenamine], the “Luminescence Signal (%)” value in the test on cAMP-related PDEs worked out at 55%. Besides, the figures for the IC50 in test [2] and in test [1] were 14.1 µM and 2.1 µM, respectively.

Consider `CC(=O)O[C@@H]1C(=O)CCC2=CCC[C@H](C)[C@@]2(C)/C=C\1C` [Compound 6, 4-acetoxy-2,8-neolemnadien-5-one], for which the “Luminescence Signal (%)” value with cAMP-related PDEs came to 51%. Also, in test [1], the 50% inhibitory concentration (IC50) amounted to 36.2 µM and the “PDE7A inhibitory activity (in words)” value is listed as “weak”.

Take `Cc1c(O)c(C)c2c(c1O)C(=O)O[C@](C)(O)[C@H]2C` [Compound 7, (3S,4S)-sclerotinin A]: the “Luminescence Signal (%)” value with cAMP-related PDEs is 53%. Moreover, the IC50 in test [2] is 28.2 µM; in test [1], ~5.6 µM and 5.6 µM. Further, the “PDE4B inhibitory activity (in words)” value in test [2] was “weak”.

Turning to `COc1cc2c(cc1OC)-c1c(OC)c(OC)cc3c1[C@H](C2)N(C)CC3` [Glaucine, reference compound], in the test with cAMP-related PDEs, the IC50 is 59.8 µM.

Turning to `CC(C)Cn1c(=O)n(C)c(=O)c2[nH]cnc21` [IBMX, Isobutylmethylxanthine, reference compound], the IC50 with cAMP-related PDEs came to 28.6 µM; with cGMP-related PDEs (setting [3]), 184 µM.

As for `COc1ccc(-c2oc3c(CC=C(C)C)c(O[C@@H]4O[C@H](CO)[C@@H](O)[C@H](O)[C@H]4O)cc(O)c3c(=O)c2O[C@@H]2O[C@@H](C)[C@H](O)[C@@H](O)[C@H]2O)cc1` [Icariin], the IC50 in the test with cGMP-related PDEs was 642 µM; in the test with PDE5 it was 0.432 µM.

As to `Cc1nc(-c2cnn(C)c2-c2ccc(C(F)(F)F)cn2)c2c(N3CCC3)ncnn12` [PF-999, PF-05180999, reference compound], the IC50 in the test with cAMP-related PDEs worked out at 142 µM; with cGMP-related PDEs (setting [3]), 45.6 µM.

Take `COc1ccc(C2CNC(=O)C2)cc1OC1CCCC1` (stereo not shown) [Rolipram, rolipram, reference compound]: in the test with cAMP-related PDEs, the 50% inhibitory concentration (IC50) is ~0.1 µM and the “Luminescence Signal (%)” value is 300%. Further, in the test on cAMP-related PDEs (rolipram 5 μM, forskolin 5 μM, cAMP cell model), the “difference in luminescence signal values between rolipram and PBS groups” value was “over 1000”.

`CCCc1nn(C)c2c(=O)[nH]c(-c3cc(S(=O)(=O)N4CCN(C)CC4)ccc3OCC)nc12` [Sildenafil, sildenafil]: the IC50 in the test with cGMP-related PDEs (setting [3]) was ~0.1 µM.
